Assay results from patent publication US20070208087A1, “Compounds, compositions and methods for the treatment of inflammatory diseases” (priority 2001, published 2007).
“And” between values parts separate entries of the source, which are not always exact repeats. Equal entries are not always repeated. Where two headings read alike, the source gives them in different places.

Experiments:
Assay type in all cases: cell-based
microglia = experiment: Ranking of NO release inhibition (Example 12); conditions: Microglia, ranking table
From the text: The bis- and tris-dihydroxyaryl compounds were ranked in order of effectiveness for the inhibition of NO release as set out in Table 8.

[1] = system: EOC 13.31 microglia cells; experiment: NO release inhibition in LPS/IFNγ stimulated microglia, concurrent treatment, Griess reaction at 24 hours (Example 6); conditions: for NO release, Avg / inhibition at 50 µM: 24 hours; for inhibition at 50 µM: Microglia
Method: The purpose of this experiment was to screen compounds 3, 4, 21, 26, 51, 52, 66, and 78 for their ability to inhibit Nitric oxide release from microglia. […] EOC 13.31 microglia cells were plated into 96 well plates for 24 hours. Confluent cells were treated with 50 μM of the bis- and tris-dihydroxyaryl compounds either with or without stimulation at 1 pg/ml LPS, and 1 ng/ml IFNγ. NO release was measured at 24 hours using the Griess reaction which is a spectrophotometric measure of NO release (reagents from Promega).

[2] = system: EOC 13.31 microglia cells; experiment: Inhibition of NO release from microglia following 24 hours pretreatment (Example 10); conditions: for inhibition at 50 µM: Microglia
How it was run: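 Confluent EOC 13.31 cells pretreated 24 hours with 50 μM compound (from 10 mM DMSO stock), then stimulated with 10 μg/ml LPS plus 10 ng/ml IFNγ without media change. After a further 48 hours, NO release was measured by Griess Reaction.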

Microglial cells = experiment: Dose response inhibition of NO release from microglia, 0.75-200 μM (Example 8)
Method: This experiment was designed to determine dose response inhibition of NO release from microglia by bis- and tris-dihydroxyaryl compounds when stimulated with LPS/IFNγ. […] This experiment is designed to determine a dose response for various bis- and tris-dihydroxyaryl compounds. Microglial cells were plated into 96 well plates at 1×10^5 cells/ml. […] The doses tested were: 0.75 μM, 1.56 μM, 3.125 μM, 6.25 μM, 12.5 μM, 25 μM, 50 μM, 100 μM and 200 μM. Nitric oxide release was measured after 48 hours using the Griess reaction.

[3] = Compound Only (without LPS/IFNγ), 50 μM
[4] = Compound + LPS/IFNγ, read-out: % inhibition of NO release
[5] = Table 2 summary, LPS/IFNγ, read-out: % Inhibition (summary of inhibition of NO release)
[6] = 50 uM pretreatment 24 hours, then LPS/IFNγ 48 hours, single replicates
[7] = 50 uM pretreatment 24 hours, then LPS/IFNγ 48 hours, read-out: Avg % Inhibition
[8] = 50 uM pretreatment 24 hours, then LPS/IFNγ 48 hours, single replicates, read-out: % inhibition
[9] = dose 0.75 μM, 48 hours, single replicates
[10] = dose 1.56 μM, 48 hours, single replicates
[11] = dose 3.125 μM, 48 hours, single replicates
[12] = dose 6.25 μM, 48 hours, single replicates
[13] = dose 12.5 μM, 48 hours, single replicates
[14] = dose 25 μM, 48 hours, single replicates
[15] = dose 50 μM, 48 hours, single replicates
[16] = dose 100 μM, 48 hours, single replicates
[17] = dose 200 μM, 48 hours, single replicates

Compound: O=C(NCCc1ccc(O)c(O)c1)Nc1ccc(O)c(O)c1 [Compound 78, 1-(3,4-dihydroxyphenyl)-3-(3,4-dihydroxyphenethyl)urea]
- inhibition at 50 µM (microglia): -1%
- NO release, Avg ([1]; Compound + LPS/IFNγ, 50 μM): 18.7925 µM
- NO release, Avg [1, 3]: 1.1667 µM
- inhibition at 50 µM [1, 4]: -0.9%
- inhibition at 50 µM [1, 5]: -0.9%
- % inhibition [2, 6]: 57.93% and 69.00%
- inhibition at 50 µM [2, 7]: 65.5%
- inhibition at 50 µM [2, 8]: 69.6%

Compound: O=C(CCC(=O)Nc1ccc(O)c(O)c1)Nc1ccc(O)c(O)c1 [Compound 66, succinic acid bis(3,4-dihydroxyanilide)]
- inhibition at 50 µM (microglia): 17%
- NO release, Avg ([1]; Compound + LPS/IFNγ, 50 μM): 15.4762 µM
- NO release, Avg [1, 3]: 0.8333 µM
- inhibition at 50 µM [1, 4]: 16.9%
- inhibition at 50 µM [1, 5]: 16.9%
- % inhibition [2, 6]: 59.20% and 65.21%
- inhibition at 50 µM [2, 7]: 64.3%
- inhibition at 50 µM [2, 8]: 68.4%

Compound: Oc1ccc(CCc2ccc(O)c(O)c2)cc1O [Compound 4, 1,2-bis(3,4-dihydroxyphenyl)ethane]
- inhibition at 50 µM (microglia): 94%
- inhibition of NO release, in words ([1]; 50 μM, LPS/IFNγ stimulated microglial cells): very effective inhibitors of NO release
- NO release, Avg ([1]; Compound + LPS/IFNγ, 50 μM): 1.0417 µM
- NO release, Avg [1, 3]: 0.8660 µM
- inhibition at 50 µM [1, 4]: 94.4%
- inhibition at 50 µM [1, 5]: 94.4%
- inhibition at 0.75 µM (Microglial cells; Microglia, 48 h, dose 0.75 μM): -11.1%
- inhibition at 1.56 µM (Microglial cells; Microglia, 48 h, dose 1.56 μM): 2.52%
- inhibition at 3.125 µM (Microglial cells; Microglia, 48 h, dose 3.125 μM): 6.14%
- inhibition at 6.25 µM (Microglial cells; Microglia, 48 h, dose 6.25 μM, 48 hours, read-out: Avg % Inhibition): 36.2%
- inhibition at 6.25 µM (Microglial cells; Microglia, 48 h, dose 6.25 μM, 48 hours, single replicates, read-out: % inhibition): 42.2%
- inhibition at 12.5 µM (Microglial cells; Microglia, 48 h, dose 12.5 μM, 48 hours, read-out: Avg % Inhibition): 82.7%
- inhibition at 12.5 µM (Microglial cells; Microglia, 48 h, dose 12.5 μM, 48 hours, single replicates, read-out: % inhibition): 85.1%
- inhibition at 25 µM (Microglial cells; Microglia, 48 h, dose 25 μM, 48 hours, read-out: Avg % Inhibition): 86.2%
- inhibition at 25 µM (Microglial cells; Microglia, 48 h, dose 25 μM, 48 hours, single replicates, read-out: % inhibition): 85.6%
- inhibition at 50 µM (Microglial cells; Microglia, 48 h, dose 50 μM, 48 hours, read-out: Avg % Inhibition): 86.5%
- inhibition at 50 µM (Microglial cells; Microglia, 48 h, dose 50 μM, 48 hours, single replicates, read-out: % inhibition): 87.2%
- inhibition at 100 µM (Microglial cells; Microglia, 48 h, dose 100 μM, 48 hours, read-out: Avg % Inhibition): 82.2%
- inhibition at 100 µM (Microglial cells; Microglia, 48 h, dose 100 μM, 48 hours, single replicates, read-out: % inhibition): 83%
- inhibition at 200 µM (Microglial cells; Microglia, 48 h, dose 200 μM, 48 hours, read-out: Avg % Inhibition): 75%
- inhibition at 200 µM (Microglial cells; Microglia, 48 h, dose 200 μM, 48 hours, single replicates, read-out: % inhibition): 77.4%
- μM NO release Avg (Microglial cells; dose 0.75 μM, 48 hours): 27.011 µM
- % inhibition (Microglial cells; [9]): −8.45% and −9.87% and −14.83%
- OD values (printed under head μM NO release) (Microglial cells; [9]): 0.229 and 0.22 and 0.222
- μM NO release (Microglial cells; [9]): 27.931 µM and 26.379 µM and 26.724 µM
- μM NO release Avg (Microglial cells; dose 1.56 μM, 48 hours): 23.709 µM
- % inhibition (Microglial cells; [10]): 6.85% and 4.93% and −4.20%
- OD values (printed under head μM NO release) (Microglial cells; [10]): 0.214 and 0.197 and 0.2
- μM NO release (Microglial cells; [10]): 25.345 µM and 22.656 µM and 23.125 µM
- μM NO release Avg (Microglial cells; dose 3.125 μM, 48 hours): 22.829 µM
- % inhibition (Microglial cells; [11]): 12.63% and 10.71% and −4.91%
- OD values (printed under head μM NO release) (Microglial cells; [11]): 0.215 and 0.188 and 0.191
- μM NO release (Microglial cells; [11]): 25.517 µM and 21.250 µM and 21.719 µM
- μM NO release Avg (Microglial cells; dose 6.25 μM, 48 hours): 15.521 µM
- % inhibition (Microglial cells; [12]): 40.26% and 26.12%
- OD values (printed under head μM NO release) (Microglial cells; [12]): 0.167 and 0.142 and 0.145
- μM NO release (Microglial cells; [12]): 17.969 µM and 14.063 µM and 14.531 µM
- μM NO release Avg (Microglial cells; dose 12.5 μM, 48 hours): 4.21 µM
- % inhibition (Microglial cells; [13]): 84.07% and 78.93%
- OD values (printed under head μM NO release) (Microglial cells; [13]): 0.083 and 0.071 and 0.073
- μM NO release (Microglial cells; [13]): 5.125 µM and 3.625 µM and 3.875 µM
- μM NO release Avg (Microglial cells; dose 25 μM, 48 hours): 3.357 µM
- % inhibition (Microglial cells; [14]): 87.89%
- OD values (printed under head μM NO release) (Microglial cells; [14]): 0.071 and 0.07 and 0.064
- μM NO release (Microglial cells; [14]): 3.625 µM and 3.500 µM and 2.947 µM
- μM NO release Avg (Microglial cells; dose 50 μM, 48 hours): 3.292 µM
- OD values (printed under head μM NO release) (Microglial cells; [15]): 0.071 and 0.067 (2×)
- μM NO release (Microglial cells; [15]): 3.625 μM and 3.125 μM (2×)
- μM NO release Avg (Microglial cells; dose 100 μM, 48 hours): 4.333 µM
- % inhibition (Microglial cells; [16]): 82.01% and 81.50%
- OD values (printed under head μM NO release) (Microglial cells; [16]): 0.078 and 0.075 and 0.077
- μM NO release (Microglial cells; [16]): 4.500 µM and 4.125 µM and 4.375 µM
- Avg % Inhibition (Microglial cells; dose 200 μM, 48 hours): 75.332%
- μM NO release Avg (Microglial cells; dose 200 μM, 48 hours): 6.000 µM
- % inhibition (Microglial cells; [17]): 74.30%
- OD values (printed under head μM NO release) (Microglial cells; [17]): 0.092 (2×) and 0.086
- μM NO release (Microglial cells; [17]): 6.250 μM (2×) and 5.500 μM
- inhibition of NO release, in words (Microglial cells; dose response 0.75-200 μM): effective inhibitors of NO release
- μM NO release [2, 6]: 0.000 µM
- inhibition at 50 µM [2, 7]: 100%
- inhibition at 50 µM [2, 8]: 100%
- inhibition at 50 µM ([2]; 50 μM pretreatment, read-out: inhibition of NO release following pretreatment): > 75%
